Source: article PMC11449324, “Functional comparison of human and murine equilibrative nucleobase transporter 1” (PLOS ONE, 2024)
Like-named read-outs stand apart in the source and are kept apart here.

Assays:
[1] = system: HEK293-EV cells (ENBT1-deficient); assay: Radiolabelled substrate uptake in empty vector HEK293-EV cells; type: cell-based, human; details: 2 seconds
Experimental: This is the minimum incubation time achievable with this oil-stop technique, and it was found in previous studies that these short incubation times were necessary to assess the kinetics of this transporter. The aqueous layer was removed via vacuum-powered aspirator, and the tube was washed with 1 mL of NMG buffer prior to removal of the oil layer. […] In transfected-HEK293 cell lines, total uptake was defined as uptake of radiolabeled substrate in cells overexpressing recombinant hENBT1 or mENBT1. […] This non-mediated component would include passive diffusion into the cells and radiolabelled substrate remaining extracellularly in the digested cell pellet after processing the samples. […] ENBT1-mediated uptake was calculated as total uptake minus the non-mediated uptake. Cell water volume (μL) was estimated by incubating cells with ^3H2O for 3 minutes, centrifuging the cells through the oil layer at ~10,000 g, assessing 100 μL of the supernatant for radioactive content, and then processing as described above. Total cellular water volume was determined from the ratio of the decays per minute of the cell pellet, to the decays per minute of the supernatant, allowing for inter-experimental normalization via calculation of picomoles of substrate accumulated per microliter of cell-associated water.

mENBT1 = target: T1, mENBT1 (Mus musculus, UniProt A2AVZ9); assay: Inhibition of ENBT1-mediated substrate uptake in HEK293-mslc43a3 cells; type: cell-based
T1 construct: Oligonucleotides corresponding to the coding region of SLC43A3 (NM_001278201) or slc43a3 (NM_021398); expressed in transfected cells; HEK293-mslc43a3
T1 sequence (A2AVZ9 1-502): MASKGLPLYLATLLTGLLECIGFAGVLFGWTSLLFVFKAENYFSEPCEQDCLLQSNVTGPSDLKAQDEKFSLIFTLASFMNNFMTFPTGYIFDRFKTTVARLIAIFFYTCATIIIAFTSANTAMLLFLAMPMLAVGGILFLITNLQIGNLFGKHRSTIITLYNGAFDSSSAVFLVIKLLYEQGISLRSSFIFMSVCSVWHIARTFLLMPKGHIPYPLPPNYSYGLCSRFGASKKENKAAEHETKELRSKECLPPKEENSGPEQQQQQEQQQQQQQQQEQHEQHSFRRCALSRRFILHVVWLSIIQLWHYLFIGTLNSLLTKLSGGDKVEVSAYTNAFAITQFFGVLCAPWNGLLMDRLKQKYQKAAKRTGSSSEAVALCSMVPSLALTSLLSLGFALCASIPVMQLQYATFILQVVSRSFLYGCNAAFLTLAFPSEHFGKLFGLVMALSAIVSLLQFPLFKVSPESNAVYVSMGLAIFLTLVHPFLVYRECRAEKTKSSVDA
Experimental: (§1) Harvested cells were suspended in nominally sodium-free N-methyl-D-glucamine (NMG) buffer (140 mM NMG, 5 mM KCl, 4.2 mM KHCO3, 0.36 mM K2HPO4, 0.44 mM KH2PO4, 0.5 mM MgCl2, 1.3 mM CaCl2, 10 mM HEPES, pH 7.4), to minimize potential contribution of sodium-dependent concentrative nucleoside transporter-mediated uptake. Additionally, cells were incubated for 15 minutes at room temperature with 10 μM dipyridamole (DY), an equilibrative nucleoside transporter (ENT) inhibitor, to block equilibrative nucleoside transporter–mediated uptake. The substrate uptake assay was initiated by adding 250 μL cell suspension to 250 μL [^3H] labeled substrate, layered over 21:4 silicone:mineral oil (200 μL) in 1.5 mL microcentrifuge tubes (conducted at room temperature). The uptake reaction was terminated after 2 seconds by centrifugation of the cells through the oil layer at ~10,000 g. This is the minimum incubation time achievable with this oil-stop technique, and it was found in previous studies that these short incubation times were necessary to assess the kinetics of this transporter. The aqueous layer was removed via vacuum-powered aspirator, and the tube was washed with 1 mL of NMG buffer prior to removal of the oil layer. The resulting cell pellet was digested in 250 μL 1 M NaOH overnight (~16 hours), with 220 μL aliquots of digested cells assessed for radioactive content using standard liquid scintillation counting techniques in a Beckman Coulter LS6500 scintillation system (Brea, CA).
(§2) To assess the ability of compounds to inhibit substrate uptake, cells were incubated with the inhibitor for 15 minutes prior to initiating the uptake assay, or exposed to the cells simultaneously with the radiolabelled substrate. […] After subtraction of the non-mediated uptake component, the degree of inhibition was calculated as the ratio of cellular accumulation in the presence of test compound to that measured in its absence (X 100).
(§3) Each assay was repeated 5–6 times using independent cell isolations and reagent preparations. In addition, within each assay, there were two or three technical replicates (using the same reagents and cells) that were averaged to obtain a single data point. Nonlinear curves were fitted to data (presented as mean ± SD from the 5–6 independent experiments), and statistical analyses were done using GraphPad Prism 10 software. In all cases, if the P-value determined from a statistical test was less than 0.05, the null hypothesis was rejected and the alternative hypothesis was favoured. Significant differences between groups were assessed using either Student’s t-test or ordinary one- or two-way analysis of variance (ANOVA) followed by a post hoc Šidák multiple comparison test, as appropriate. For influx and cell viability analyses, significant differences in Km and EC50 value, respectively, between the hENBT1 and mENBT1 data sets, were determined by the extra sum-of-squares F test. For inhibition analyses, the Ki values were determined from the IC50 values using the specified substrate concentration [S], based on the Cheng-Prusoff equation Ki = IC50/(1 + [S]/Km) and experimentally obtained Km values.

hENBT1 = target: T2, hENBT1 (Homo sapiens, UniProt Q8NBI5); assay: Inhibition of ENBT1-mediated substrate uptake in HEK293-hSLC43A3 cells; type: cell-based
T2 construct: Oligonucleotides corresponding to the coding region of SLC43A3 (NM_001278201) or slc43a3 (NM_021398); expressed in transfected cells; HEK293-hSLC43A3
T2 sequence (Q8NBI5 1-491): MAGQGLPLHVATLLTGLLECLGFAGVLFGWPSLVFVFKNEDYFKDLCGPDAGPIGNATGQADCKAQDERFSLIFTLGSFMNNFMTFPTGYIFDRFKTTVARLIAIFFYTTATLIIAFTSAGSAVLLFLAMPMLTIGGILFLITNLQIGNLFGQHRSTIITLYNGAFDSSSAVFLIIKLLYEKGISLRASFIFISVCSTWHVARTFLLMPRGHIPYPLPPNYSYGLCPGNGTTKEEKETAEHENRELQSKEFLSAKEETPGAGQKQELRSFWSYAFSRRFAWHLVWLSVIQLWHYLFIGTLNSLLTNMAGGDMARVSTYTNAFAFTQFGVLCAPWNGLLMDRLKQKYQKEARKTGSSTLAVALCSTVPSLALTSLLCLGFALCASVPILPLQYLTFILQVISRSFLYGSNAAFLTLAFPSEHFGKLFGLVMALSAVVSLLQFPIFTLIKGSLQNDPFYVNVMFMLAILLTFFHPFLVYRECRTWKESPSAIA
Experimental: as §1, §2, §3

Row | Ki (mENBT1; HEK293-mslc43a3, 30 μM [3H]adenine, 2 seconds, Cheng-Prusoff, read-out: Ki for inhibition of ENBT1-mediated [3H]adenine uptake) [mM] | inhibition of ENBT1-mediated [3H]adenine uptake (mENBT1; at highest concentration of 6-MP tested (1 mM), HEK293-mslc43a3) | Ki relative to its Km for the transporter (mENBT1; mENBT1) [fold] | Ki (hENBT1; HEK293-hSLC43A3, 30 μM [3H]adenine, 2 seconds, Cheng-Prusoff, read-out: Ki for inhibition of ENBT1-mediated [3H]adenine uptake) [mM] | inhibition of ENBT1-mediated [3H]adenine uptake (hENBT1; at highest concentration of 6-MP tested (1 mM), HEK293-hSLC43A3) | Ki relative to its Km for the transporter (hENBT1; hENBT1) [fold] | Ki (mENBT1) [mM] | inhibition of ENBT1-mediated [14C]6-MP uptake (mENBT1; at 1 mM adenine, HEK293-mslc43a3) | Ki (hENBT1) [mM] | inhibition of ENBT1-mediated [14C]6-MP uptake (hENBT1; at 1 mM adenine, HEK293-hSLC43A3) | SMILES | uptake of radiolabelled substrate [1]
1 | 7.4 ± 1.3 | complete inhibition was not obtained | 30 | 5.9 ± 0.7 | complete inhibition was not obtained | 30 | – | – | – | – | Sc1ncnc2nc[nH]c12 [6-MP, 6-Mercaptopurine] | minimal uptake
2 | – | – | – | – | – | – | 0.051 ± 0.013 | near complete inhibition | 0.025 ± 0.009 | near complete inhibition | Nc1ncnc2[nH]cnc12 [adenine, Adenine] | minimal uptake
